Results on 16 compounds are retold here after patent US6794402B2, “Bicyclic cyclohexylamines and their use as NMDA receptor antagonists” (Warner-Lambert Company, priority 2000, dated 2004).

One data set concerns the target NR1A/NR2B NMDA receptor (Rattus norvegicus, UniProt P35439+Q00960). Description: Electrophysiological assay at NMDA receptor subunits expressed in Xenopus oocytes. The format is cell-based. As to conditions: cloned rat NR1A/NR2B in Xenopus oocytes, two-electrode voltage clamp, glutamate 100 μM + glycine 1-100 μM; read-out: NR1A/NR2B Oocyte IC50. An excerpt:
Preparation of RNA. cDNA clones encoding the NR1A, NR2A, NR2B, and NR2C rat NMDA receptor subtypes were used (see, Moriyoshi, supra., 1991; Kutsuwada et al., supra., 1992; Monyer et al., supra, 1992; Ikeda et al., FEBS Lett., 1992;313:34-38; Ishii et al., J. Biol. Chem., 1993;268:2836-2843 for details of these clones or their mouse homologs). The clones were transformed into appropriate host bacteria and plasmid preparations were made with conventional DNA purification techniques. A sample of each clone linearized by restriction enzyme digestion […] was synthesized with T3 RNA polymerase. The cRNA was diluted to 400 ng/μL and stored in 1-μL aliquots at −80° C. until injection.
The Xenopus oocyte expression system. Mature female Xenopus laevis were anaesthetized (20-40 minutes) using 0.15% 3-aminobenzoic acid ethyl ester (MS-222), and 2 to 4 ovarian lobes were surgically removed. Oocytes at developmental stages IV-VI (Dumont J. N., J. Morphol., 1972;136:153-180) were dissected from the ovary still surrounded by enveloping ovarian tissues. Follicle-enclosed oocytes were microinjected with 1:1 mixtures of NR1A:NR2A, 2B or 2C; injecting 1 to 10 ng of RNA encoding each receptor subunit. NR1A encoding RNA was injected alone at ˜20 ng. Oocytes were stored in Barth's medium containing (in mM): NaCl, 88; KCl, 1; CaCl2, 0.41; Ca (NO3)2, 0.33; MgSO4, 0.82; NaHCO3, 2.4; HEPES 5; pH 7.4, with 0.11 mg/mL gentamicin sulphate. While oocytes were still surrounded by enveloping ovarian tissues, the Barth's medium was supplemented with 0.1% bovine serum. Oocytes were defolliculated 1 to 2 days following injections by treatment with collagenase (0.5 mg/mL Sigma Type I for 0.5-1 hr)-(Miledi and Woodward, J. Phsyiol., (Lond) 1989;416:601-621) and subsequently stored in serum-free medium.
Electrical recordings were made using a conventional two-electrode voltage clamp (Dagan TEV-200) over periods ranging between 3 to 21 days following injection (Woodward et al., Mol. Pharmacol., 1992;41:89-103). Oocytes were placed in a 0.1-mL recording chamber continuously perfused (5 mL-15 mL min^−1) with frog Ringer's solution containing (in mM): NaCl, 115; KCL, 2; BaCl2, 1.8; HEPES, 5; and pH 7.4. Drugs were applied by bath perfusion. Using oocytes expressing different subunit combinations of NMDA receptor, NMDA currents were activated by co-application of glutamate (100 μM) and glycine (1-100 μM). Inhibitory potency of the novel antagonists was assessed on responses elicited by fixed concentrations of glutamate and glycine, by measuring reductions in current induced by progressively increasing concentrations of antagonist.
Concentration-inhibition curves were fit with Equation 1.
I/Icontrol=1/(1+([antagonist]/10−^pIC50)^n) Eq. 1
In which Icontrol is the current evoked by agonists alone, pIC50=−log IC50, IC50 is the concentration of antagonist that produced half maximal inhibition, and n is the slope factor (De Lean et al., Am. J. Physiol., 1978;235:E97-102). For incomplete curves, analysis by fitting was unreliable and IC50 values were calculated by simple regression over linear portions of the curves (Origin: Microcal Software).

In data set [1] the target is T1, [3H]ifenprodil binding site, rat forebrain membranes (Rattus norvegicus, UniProt P35439+Q00960).
T1 construct: membrane fraction was prepared from frozen adult rat forebrains; tissue Zivic-Miller Laboratories, Inc; host or cells: adult rat forebrain, washed buffy coat membrane fraction
Put plainly: [3H]Ifenprodil binding assay. As to conditions: 4 nM [3H]-ifenprodil, 2 hours at room temperature. The essentials:
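Washed rat forebrain buffy coat membranes (100-200 μg protein) were incubated with 4 nM [3H]ifenprodil in 20 mM HEPES-KOH pH 7.4 for 2 hours at room temperature, in triplicate, then filtered on PEI-soaked GF/B filters. Nonspecific binding was set with 1 mM ifenprodil. IC50 came from a one- or two-site competition fit.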

In data set [2] the test system is 6-Hydroxydopamine-lesioned rats. Put plainly: 6-OHDA lesioned rat assay. The format is in vivo. As to conditions: for 6-OHDA MED: minimum effective dose to potentiate contraversive rotation induced by L-DOPA methyl ester 10 mg/kg SC, 6-hour period; for 6-OHDA active/inactive at the given dose: statistically significant increase in contraversive rotations vs L-DOPA only. As for the experimental part:
6-Hydroxydopamine-lesioned rats were used (see Ungerstedt U., Arbuthnott G. W., Quantitative recording of rotational behavior in rats after 6-hydroxy-dopamine lesions of the nigrostraiatal dopamine system. Brain Res., 1971;24(3):485-93). Adult male Sprague-Dawley rats were anesthetized with chloral hydrate and unilateral lesions of the nigrostriatal dopamine system were accomplished by infusion of 8 μg of 6-hydroxydopamine HBr (6-OHDA) into the right medial forebrain bundle. Rats were pretreated 30 minutes before surgery with desipramine HCl 25 mg/kg intraperitoneally (IP) to protect noradrenegic neurons, and pargyline 25 mg/kg IP to potentiate the effects of 6-OHDA. A minimum of 3 weeks after surgery, the rotational behavior induced by apomorphine HCL 50 μg/kg subcutaneously (SC) was assessed.
Rotational behavior was measured using an automatic rotometer system (Rotorat Rotational Activity System, MED Associates, Georgia, Vt.). Anti-parkinsonian activity was assessed as the ability of the compound to potentiate the contraversive rotation induced by L-DOPA methyl ester, 10 mg/kg SC, over a 6-hour period. Experiments were conducted using a crossover paradigm where each rat received either a vehicle plus L-DOPA, or the test compound plus L-DOPA, in randomized order. Rats were tested at 7-day intervals. In experiments in which the compound was tested orally, rats were food deprived for 16 hours. Statistical analysis between treatment groups were performed using a paired t-test. The results were reported in Table 1 as the minimum effective dose (MED) of compound (mg/kg) required to produce a statistically-significant increase in total contraversive rotations compared to rats receiving L-DOPA only.

T1 sequence (Q00960 27-1482, other chains not shown): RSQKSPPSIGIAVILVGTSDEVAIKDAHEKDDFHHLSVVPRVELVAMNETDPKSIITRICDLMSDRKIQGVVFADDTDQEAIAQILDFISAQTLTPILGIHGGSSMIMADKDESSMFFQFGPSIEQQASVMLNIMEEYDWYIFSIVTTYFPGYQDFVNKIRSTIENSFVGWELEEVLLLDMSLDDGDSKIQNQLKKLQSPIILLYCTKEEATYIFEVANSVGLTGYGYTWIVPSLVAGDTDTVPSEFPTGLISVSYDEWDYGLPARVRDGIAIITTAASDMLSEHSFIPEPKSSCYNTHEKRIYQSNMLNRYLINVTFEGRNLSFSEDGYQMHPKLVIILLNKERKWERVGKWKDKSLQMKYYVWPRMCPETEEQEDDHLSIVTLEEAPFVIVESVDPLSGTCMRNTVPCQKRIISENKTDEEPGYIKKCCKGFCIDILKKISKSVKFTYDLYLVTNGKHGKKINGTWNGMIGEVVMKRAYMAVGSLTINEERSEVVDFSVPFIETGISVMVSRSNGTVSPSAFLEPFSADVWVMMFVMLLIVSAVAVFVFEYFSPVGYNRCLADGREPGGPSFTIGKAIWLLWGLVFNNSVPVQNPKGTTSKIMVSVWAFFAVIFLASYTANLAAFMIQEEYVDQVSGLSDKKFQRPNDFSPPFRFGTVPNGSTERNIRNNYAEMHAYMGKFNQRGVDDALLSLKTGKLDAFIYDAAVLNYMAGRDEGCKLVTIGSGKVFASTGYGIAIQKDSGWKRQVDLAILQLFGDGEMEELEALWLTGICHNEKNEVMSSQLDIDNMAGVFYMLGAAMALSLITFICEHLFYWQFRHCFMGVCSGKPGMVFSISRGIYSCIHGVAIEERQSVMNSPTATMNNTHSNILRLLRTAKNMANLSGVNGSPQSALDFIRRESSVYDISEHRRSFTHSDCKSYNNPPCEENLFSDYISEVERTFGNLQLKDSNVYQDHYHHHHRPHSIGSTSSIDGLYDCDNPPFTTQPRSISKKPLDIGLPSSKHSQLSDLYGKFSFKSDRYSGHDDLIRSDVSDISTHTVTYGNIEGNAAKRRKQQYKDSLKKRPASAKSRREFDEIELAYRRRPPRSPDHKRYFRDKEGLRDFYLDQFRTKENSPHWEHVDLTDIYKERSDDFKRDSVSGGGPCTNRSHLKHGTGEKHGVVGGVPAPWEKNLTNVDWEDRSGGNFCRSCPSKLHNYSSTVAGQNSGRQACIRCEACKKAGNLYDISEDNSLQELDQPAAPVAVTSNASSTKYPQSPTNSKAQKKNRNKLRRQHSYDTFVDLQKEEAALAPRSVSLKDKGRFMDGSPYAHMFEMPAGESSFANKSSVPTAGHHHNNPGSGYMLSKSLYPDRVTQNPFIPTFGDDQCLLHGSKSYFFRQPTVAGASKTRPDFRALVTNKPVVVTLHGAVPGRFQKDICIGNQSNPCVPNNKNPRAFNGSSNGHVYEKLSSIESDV
Chain of NR1A/NR2B NMDA receptor (Q00960 27-1482, other chains not shown): as above

As for `Cc1ccc(CCCN[C@H]2CC[C@@H](c3ccc4[nH]c(=O)oc4c3)CC2)cc1` [Example 13a, 6-[cis-4-(3-p-Tolylpropylamino)cyclohexyl]-3H-benzoxazol-2-one], the IC50 at NR1A/NR2B NMDA receptor was 0.08 µM; in data set [1], 0.038 µM.

For the compound `O=c1[nH]c2ccc([C@H]3CC[C@H](NCCSc4ccccc4)CC3)cc2o1` [Example 5a, 6-[trans-4-(2-Phenylsulfanylethylamino)cyclohexyl]-3H-benzoxazol-2-one], the figures for the IC50 (at NR1A/NR2B NMDA receptor; in data set [1]) were 0.02 µM and 0.004 µM, respectively.

Take `O=c1[nH]c2ccc([C@H]3CC[C@H](NCC[S+]([O-])c4ccccc4)CC3)cc2o1` (stereo partly drawn) [Example 15, 6-[trans-4-(2-Benzenesulfinylethylamino)cyclohexyl]-3H-benzoxazol-2-one]: the IC50 worked out at 0.46 µM on NR1A/NR2B NMDA receptor and 0.092 µM in data set [1].

With `CN(CCCc1ccc(F)cc1)[C@H]1CC[C@H](c2ccc3[nH]c(=O)oc3c2)CC1` [Example 18, 6-(trans-4-{[3-(4-Fluorophenyl)propyl]methylaamino}cyclohexyl)-3H-benzoxazol-2-one], the melting point was 62 to 65 °C. Also, the IC50 at NR1A/NR2B NMDA receptor was determined as 0.065 µM. Also, the IC50 in data set [1] amounted to 0.009 µM. Moreover, in data set [2], the “6-OHDA MED” value came out at 10 mg/kg and the “6-OHDA active/inactive at the given dose” value was “active”.

Regarding `COc1ccc([C@H](O)[C@H](C)N[C@H]2CC[C@@H](c3ccc4[nH]c(=O)oc4c3)CC2)cc1` [Example 11b, 6-{cis-4-[(1S,2S)-2-Hydroxy-2-(4-methoxyphenyl)-1-methylethylamino]-cyclohexyl}-3H-benzoxazol-2-one], the IC50 at NR1A/NR2B NMDA receptor is 10 µM; in data set [1], above 1 µM.

Compound `O=c1[nH]c2ccc([C@H]3CC[C@H](NCCNc4ccccc4)CC3)cc2o1` [Example 7, 6-[trans-4-(2-Phenylaminoethylamino)cyclohexyl]-3H-benzoxazol-2-one] returned a melting point of 293 to 295 °C. For the same compound, the IC50 on NR1A/NR2B NMDA receptor worked out at 0.09 µM. Also, the IC50 in data set [1] stood at 0.037 µM.

As to `COc1ccc([C@H](O)[C@H](C)N[C@H]2CC[C@H](c3ccc4[nH]c(=O)oc4c3)CC2)cc1` [Example 11a, 6-{trans-4-[(1S,2S)-2-Hydroxy-2-(4-methoxyphenyl)-1-methylethylamino]-cyclohexyl}-3H-benzoxazol-2-one], the IC50 is 55 µM at NR1A/NR2B NMDA receptor and above 1 µM in data set [1].

In the case of `O=c1[nH]c2ccc([C@H]3CC[C@H](NCCS(=O)(=O)c4ccccc4)CC3)cc2o1` [Example 16, 6-[trans-4-(2-Benzenesulfonylethylamino)cyclohexyl]-3H-benzoxazol-2-one], the IC50 was 2.5 µM on NR1A/NR2B NMDA receptor and 1.73 µM in data set [1].

As to `O=c1[nH]c2ccc([C@H]3CC[C@H](NCCCc4ccccc4)CC3)cc2o1` [Example 1, 6-[trans-4-(3-Phenylpropylamino)cyclohexyl]-3H-benzoxazol-2-one], the melting point fell in the range of 166 to 170 °C. In addition, the IC50 at NR1A/NR2B NMDA receptor turned out to be 0.03 µM. Further, the IC50 in data set [1] was found to be 0.004 µM. Further, in data set [2], the “6-OHDA MED” value amounted to 30 mg/kg and the “6-OHDA active/inactive at the given dose” value is on record as “active”.

`O=c1[nH]c2ccc([C@H]3CC[C@H](NCCCc4ccc(F)cc4)CC3)cc2o1` [Example 4a, 6-{trans-4-[3-(4-Fluorophenyl)propylamino]cyclohexyl}-3H-benzoxazol-2-one]: the IC50 on NR1A/NR2B NMDA receptor worked out at 0.02 µM. The compound also returned an IC50 in data set [1] of 0.007 µM. Also, in data set [2], the “6-OHDA MED” value is above 10.0 mg/kg and the “6-OHDA active/inactive at the given dose” value is “inactive”.

For the compound `C[C@H](CCc1ccccc1)N[C@H]1CC[C@H](c2ccc3[nH]c(=O)oc3c2)CC1` [Example 9, 6-{trans-4-[(R)-1-Methyl-3-phenylpropylamino]cyclohexyl}-3H-benzoxazol-2-one], the IC50 at NR1A/NR2B NMDA receptor was found to be 0.06 µM; in data set [1] it was 0.015 µM.

As to `O=c1[nH]c2ccc([C@H]3CC[C@H](NCCOc4ccc(F)cc4)CC3)cc2o1` [Example 2, 6-{trans-4-[2-(4-Fluorophenoxy)ethylamino]cyclohexyl}-3H-benzoxazol-2-one], the melting point was in the range of 172 to 176 °C. Besides, the IC50 at NR1A/NR2B NMDA receptor came to 0.1 µM. This compound had an IC50 in data set [1] of 0.04 µM. Besides, in data set [2], the “6-OHDA MED” value was found to be 10.0 mg/kg and the “6-OHDA active/inactive at the given dose” value was “active”.

On to `C[C@@H](CCc1ccccc1)N[C@H]1CC[C@H](c2ccc3[nH]c(=O)oc3c2)CC1` [Example 10, 6-{trans-4-[(S)-1-Methyl-3-phenylpropylamino]cyclohexyl}-3H-benzoxazol-2-one], for which the melting point fell in the range of 174 to 176 °C. Besides, at NR1A/NR2B NMDA receptor, the IC50 turned out to be 0.11 µM. Also, the IC50 in data set [1] amounted to 0.049 µM.

Turning to `C[C@H](N[C@H]1CC[C@H](c2ccc3[nH]c(=O)oc3c2)CC1)[C@H](O)c1ccccc1` (stereo in doubt) [Example 12, 6-{trans-4-[(1S,2R)-2-Hydroxy-1-methyl-2-phenylethylamino]cyclohexyl}-3H-benzoxazol-2-one], the figures for the IC50 (at NR1A/NR2B NMDA receptor; in data set [1]) were 70 µM and 22.5 µM, respectively.

As to `Cc1ccc(CCCN[C@H]2CC[C@H](c3ccc4[nH]c(=O)oc4c3)CC2)cc1` [Example 13b, 6-[trans-4-(3-p-Tolylpropylamino)cyclohexyl]-3H-benzoxazol-2-one], the results for the IC50 (on NR1A/NR2B NMDA receptor; in data set [1]) were 0.02 µM and 0.005 µM, respectively.

For the compound `O=c1[nH]c2ccc([C@H]3CC[C@H](NCCOc4ccccc4)CC3)cc2o1` [Example 3, 6-[trans-4-(2-Phenoxyethylamino)cyclohexyl]-3H-benzoxazol-2-one], the melting point lay within 159 to 162 °C. In addition, the IC50 at NR1A/NR2B NMDA receptor was found to be 0.1 µM. Besides, in data set [2], the “6-OHDA MED” value is reported as 10.0 mg/kg and the “6-OHDA active/inactive at the given dose” value is “active”.
